Data: US6514965B1, “Substituted 1-benzazepines and derivatives thereof” (Antex Pharma Inc., priority 1999, dated 2003)

Test system: bacteria
Test: MIC, broth dilution method (antibacterial activity)
Assay type: cell-based
Details: optical density of organisms with and without test compound, bacterial species not stated
Procedure: Antibacterial activity can be determined by several standard methods well known by those skilled in the art, including disc diffusions methods, broth dilution minimal inhibitory concentration (MIC) methods, etc., including the detailed method outlined below.
MIC, Broth Dilution Method
Cultures of bacteria are initially brought up from the freezer stocks onto chocolate agar plates by streaking a loop-full, then incubated for 18 hours at 35-37° C. in a 5% CO2 incubator.
Five to 10 colonies are picked from the chocolate agar plate for subculture to Brain-Heart Infusion (BHI) broth or Mueller Hinton broth or BHI containing 4% serum and incubated as described.
Evaluate the optical density of the organisms with and without the test compound. The optical density of the organisms in the presence of an active compound will be less than the optical density of the same organism untreated. The activity of the compounds is described as either negative or the lowest concentration inhibiting growth. The results are depicted in Table III, where +/− represents the least activity and ++++ represents the greatest activity.

| Compound | Antibacterial Activity |
| --- | --- |
| CCN1C(=O)CCCc2cc(N3CCN(C)CC3)c(OC)cc21 [Example 10] | +/− |
| COc1cc2c(cc1N1CCN(C(=O)OCc3ccccc3)CC1)CCC(C(=O)OC(C)(C)C)C(=O)N2Cc1cccc(F)c1 (racemic) [Example 31, 7-[(4-Benzyloxycarbonyl)piperazin-1-yl]-3(R,S)-tert-butoxycarbonyl-1-(3-fluorobenzyl)-8-methoxy-2,3,4,5-tetrahydro-1H-1-benzazepine-2-one] | ++++ |
| CC(C)(C)[Si](C)(C)Oc1ccc2c(c1)NC(=O)CCC2 [Example 36, 8-(tert-butyldimethylsilyloxy)-2,3,4,5-tetrahydro-1H-1-benzazepine-2-one] | ++++ |

Test system: not given
Test: not given
Details: not given

| Compound | melting point |
| --- | --- |
| CCN1C(=O)C(C(=O)OC(C)(C)C)CCc2cc(N3CCNCC3)c(OC)cc21 (racemic) [Example 18, 3(R,S)-tert-Butoxycarbonyl-1-ethyl-8-methoxy-7-(piperazin-1-yl)-2,3,4,5-tetrahydro-1H-1-benzazepine-2-one] | 165 °C (dec.) |
| COc1cc2c(cc1Br)CCC(C(=O)OC(C)(C)C)C(=O)N2Cc1cccc(F)c1 (racemic) [Example 30, 7-Bromo-3(R,S)-tert-butoxycarbonyl-1-(3-fluorobenzyl)-8-methoxy-2,3,4,5-tetrahydro-1H-1-benzazepine-2-one] | 146 to 148 °C |
| CCN1C(=O)C(C(=O)O)CCc2ccc(OC)cc21 (racemic) [Example 5, 3(R,S)-Carboxyl-1-ethyl-8-methoxy-2,3,4,5-tetrahydro-1H-1-benzazepine-2-one] | 120 to 121 °C |
| CCN1C(=O)C(C(=O)OC(C)(C)C)CCc2cc(Br)c(OC)cc21 (racemic) [Example 13, 7-Bromo-3(R,S)-tert-butoxycarbonyl-1-ethyl-8-methoxy-2,3,4,5-tetrahydro-1H-1-benzazepine-2-one] | 131 to 132 °C |
| CCN1C(=O)C(C(=O)O)CCc2cc(Br)c(OC)cc21 (racemic) [Example 17, 7-Bromo-3(R,S)-carboxyl-1-ethyl-8-methoxy-2,3,4,5tetrahydro-1H-1-benzazepine-2-one] | 188 to 189 °C (dec.) |
| O=C1CCCc2ccc(O)cc2N1 [Example 33, 8-Hydroxy-2,3,4,5-tetrahydro-1H-1-benzazepine-2-one] | 226 to 227 °C |
| CCN1C(=O)C(C(=O)O)CCc2cc(N3CCNCC3)c(OC)cc21.Cl (racemic) [Example 15, 3(R,S)-Carboxyl-1-ethyl-8-methoxy-7-(piperazin-1-yl)-2,3,4,5-tetrahydro-1H-1-benzazepine-2-one Hydrochloride] | 173 to 176 °C (dec.) |
| COc1ccc2c(c1)N(C(=O)OC(C)(C)C)C(=O)C(C(=O)OC(C)(C)C)CC2 (racemic) [Example 23, 1-tert-Butoxycarbonyl-3(R,S)-tert-butoxycarbonyl-8-methoxy-2,3,4,5-tetrahydro-1H-1-benzazepine-2-one] | 91 to 92 °C |
| CCN1C(=O)CCCc2cc(Br)c(OC)cc21 [Example 9, 7-Bromo-1-ethyl-8-methoxy-2,3,4,5-tetrahydro-1H-1-benzazepine-2-one] | 133 to 135 °C |
| CCOC(=O)C1CCc2ccc(OC)cc2NC1=O (racemic) [Example 3, 3(R,S)-Ethoxycarbonyl-8-methoxy-2,3,4,5-tetrahydro-1H-1-benzazepine-2-one] | 89 to 91 °C |
| CCN1C(=O)C(C(=O)OC(C)(C)C)C=Cc2ccc(OC)cc21 (racemic) [Example 16, 3(R,S)-tert-Butoxycarbonyl-1-ethyl-8-methoxy-2,3-dihydro-1H-1-benzazepine-2-one] | 173 to 174 °C |
| CCN1C(=O)C(C(=O)OC(C)(C)C)CCc2ccc(OC)cc21 (racemic) [Example 12, 3(R,S)-tert-Butoxycarbonyl-1-ethyl-8-methoxy-2,3,4,5-tetrahydro-1H-1-benzazepine-2-one] | 132 to 133 °C |
| CCN1C(=O)C(Br)(C(=O)OC)CCc2cc(Br)c(OC)cc21 (racemic) [Example 27, 3,7-Dibromo-1-ethyl-3(R,S)-methoxycarbonyl-8-methoxy-2,3,4,5-tetrahydro-1H-1-benzazepine-2-one] | 71 to 73 °C (dec.) |
| COc1cc2c(cc1Br)CCC(C(=O)OC(C)(C)C)C(=O)N2 (racemic) [Example 32, 7-Bromo-3(R,S)-tert-butoxycarbonyl-8-methoxy-2,3,4,5-tetrahydro-1H-1-benzazepine-2-one] | 207 to 208 °C |
| COc1ccc2c(c1)NC(=O)C(C(=O)OC(C)(C)C)CC2 (racemic) [Example 11, 3(R,S)-tert-Butoxycarbonyl-8-methoxy-2,3,4,5-tetrahydro-1H-1-benzazepine-2-one] | 145 to 147 °C |
| COc1ccc2c(c1)NC(=O)CCC2 [Example 2, 8-Methoxy-2,3,4,5-tetrahydro-1H-1-benzazepine-2-one] | 105 to 106 °C |
| COc1cc2c(cc1Br)CCCC(=O)N2 [Example 24, 7-Bromo-8-methoxy-2,3,4,5-tetrahydro-1H-1-benzazepine-2-one] | 180 to 182 °C |
